Test results: article PMC7433010, “Exploration of multi‐target effects of 3‐benzoyl‐5‐hydroxychromen‐2‐one in Alzheimer’s disease cell and mouse models” (Aging Cell, 2020)
Read-outs that look alike come from different tables or passages of the source.

Assay: MTT cytotoxicity in uninduced ∆K280 TauRD‐DsRed 293 cells
Format: cell-based
Conditions: human
Procedure: Licochalcone A and five derivative LM compounds were tested (Figure 1a). All six compounds were soluble up to 100 μM in a cell culture medium (Figure S1a). Based on molecular weight (MW), hydrogen bond donors (HBD), hydrogen bond acceptors (HBA), and calculated octanol/water partition coefficient (cLogP), all six compounds meet Lipinski's criteria in predicting oral bioavailability (Lipinski, Lombardo, Dominy, & Feeney, 1997) (Figure S1b). […] To choose the optimal treatment dose used for the best efficacy of the candidate compounds, a specific type of biphasic dose response of a compound called hormesis should take into consideration. Evidence has shown that a wide range of pharmaceutical products display a hermetic dose‐response feature, characterized by a low‐dose stimulation and a high‐dose inhibition (Calabrese et al., 2018; Concetta Scuto et al., 2019; Pilipenko et al., 2019). Therefore, we tested the compounds at a range of doses to find the optimal dose for the best therapeutic effect and the least cytotoxicity. Firstly, MTT assay was performed using uninduced ∆K280 TauRD‐DsRed 293 and retinoic acid‐differentiated SH‐SY5Y cells following treatment with the test compounds (0.1–10 μM) for 3 (for 293 cells) or 7 (for SH‐SY5Ycells) days. […] Congo red is an amyloidogenic dye known to reduce Aβ neurotoxicity (Lorenzo & Yankner, 1994).
Licochalcone A was purchased from Sigma-Aldrich, St. Louis, MO, USA. In-house LM compounds were synthesized and characterized by NMR spectrum as described (Lee et al., 2012, 2015, 2018). Tet-On ∆K280 TauRD-DsRed 293 and SH-SY5Y cells (Chang et al., 2016) were cultured in Dulbecco’s modified Eagles medium (DMEM) (293) or DMEM-F12 (SH-SY5Y) containing 10% fetal bovine serum (Invitrogen, Carlsbad, CA, USA), 5 μg/ml of blasticidin, and 100 μg/ml of hygromycin (InvivoGen, San Diego, CA, USA). Compound cytotoxicity was assessed by colorimetric assay for measuring cell metabolic activity. Briefly, 5 × 10^4 cells were plated (48-well plates), grown for 20 h, and treated with the test compounds ([…]). […], 20 µl of 3-(4,5-dimethylthiazol-2-yl)-2,5-diphenyltetrazolium bromide (MTT, 5 mg/ml in PBS; Sigma-Aldrich) was added to the cells and incubated at 37°C for 3 h. Then 200 µl of lysis buffer (10% Triton X-100, 0.1 N HCl, 18% isopropanol) was added and the absorbance of the insoluble product at OD 570 nm was measured by a microplate reader (FLx800 fluorescence microplate reader, Bio-Tek, Winooski, VT, USA). The half-maximal inhibitory concentration (IC50) was calculated using the interpolation method.
Figure S1. Test compounds. (a) Solubility (in cell culture medium) of test compounds. (b) Molecular weight (MW), hydrogen bond donor (HBD), hydrogen bond acceptor (HBA), calculated octanol-water partition coefficient (cLogP), polar surface area (PSA), and predicted blood-brain barrier (BBB) score of test compounds. (c) Cytotoxicity of test compounds against ∆K280 TauRD-DsRed 293 and SH-SY5Y cells using the MTT assay. Uninduced 293 cells were plated on day 1 and treated with 0.1–10 μM test compounds on day 2. Cell viability was measured on day 5 (n = 3). In addition, uninduced SH-SY5Y cells were seeded with all trans retinoic acid (RA; 10 µM) on day 1 and treated with 0.1–10 μM test compounds on day 2. Cell viability was measured on day 9 (n = 3). To normalize, the relative viability in compound untreated cells was set at 100%. IC50 values are listed.

Row | Compound | IC50 at 3 days [µM] | IC50 at 3 days (uninduced Tet-On ∆K280 TauRD-DsRed 293 cells, uninduced 293 cells, 3 days treatment, read-out: IC50 (MTT cytotoxicity)) [µM]
1 | O=C(c1ccccc1)c1cc2c(O)cccc2oc1=O [LM‐031, 3‐benzoyl‐5‐hydroxychromen‐2‐one] | 55.9 | 
2 | Nc1c(/N=N/c2ccc(-c3ccc(/N=N/c4cc(S(=O)(=O)O)c5ccccc5c4N)cc3)cc2)cc(S(=O)(=O)O)c2ccccc12 [congo red, reference compound] | 36.4 | 
3 | C=CC(C)(C)c1cc(/C=C/C(=O)c2ccc(O)cc2)c(OC)cc1O [licochalcone A, reference compound] |  | 7
4 | COc1ccc(C(=O)/C=C/c2cc(Br)ccc2O)cc1 [LM‐004] | 6.4 | 
